Experimental data reported in patent US5128359A, “Benzimidazole and azabenzimidazole derivatives which are thromboxane receptor antagonists, their methods of preparation” (Laboratoires UPSA, priority 1990, dated 1992).

Target: T1, TXA2 receptors of human platelets (Homo sapiens, UniProt P21731)
T1 construct: Human platelets incubate in the presence of a single concentration; endogenous in cells; host or cells: human platelets
T1 sequence (P21731 1-343): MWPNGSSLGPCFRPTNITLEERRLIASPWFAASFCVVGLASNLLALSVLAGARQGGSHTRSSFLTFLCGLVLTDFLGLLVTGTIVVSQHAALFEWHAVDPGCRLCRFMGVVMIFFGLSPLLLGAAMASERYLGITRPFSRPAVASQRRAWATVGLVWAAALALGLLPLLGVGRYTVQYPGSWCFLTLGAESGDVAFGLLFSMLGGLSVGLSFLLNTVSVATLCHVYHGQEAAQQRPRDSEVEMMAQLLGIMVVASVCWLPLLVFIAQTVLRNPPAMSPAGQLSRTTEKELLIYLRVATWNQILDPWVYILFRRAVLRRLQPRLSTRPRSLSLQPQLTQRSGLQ
Experiment: displacement of radioligand [^125 I]PTA-OH specifically bound to the TXA2 receptors of human platelets
Assay type: binding
Conditions: for inhibition at 10 µM / inhibition at 0.1 µM: 0.5 h, 30 minutes at 37° C; for inhibition at 10 µM: 1E-5 M competing agent, read-out: % displacement, Concentration 1E-5 M; for inhibition at 0.1 µM: 1E-7 M competing agent, read-out: % displacement, Concentration 1E-7 M; for Ki: determined according to the formula of CHENG and PRUSOFF, read-out: Ki (inhibition constant)
Protocol: The affinity of the products of the Examples described for thromboxane A2 receptors is evaluated by the technique of displacing a radioligand specifically bound to the TXA2 receptors of human platelets. […] The reaction is completed by the addition of a buffer, followed by rapid filtration through […] filters. […] The results are expressed, for the doses tested, as the percentage displacement of the radioligand specifically bound to the TXA2 receptors of human platelets.

SMILES	inhibition at 10 µM [%]	inhibition at 0.1 µM [%]	Ki [µM]
O=C(O)[C@@H]1CC[C@H]1c1nc2cc(F)ccc2n1Cc1ccc(Cl)cc1 (relative stereo) [Example 90, Trans-2-[1 (4-chlorobenzyl)-5-fluorobenzimidazol-2-yl]cyclobutane-1 carboxylic acid]	97	2	1.18
O=C(O)[C@@H]1CCC[C@H]1c1nc2cc(F)ccc2n1Cc1ccc(Cl)cc1 (relative stereo) [Example 153, Trans 2-[1-(4-chlorobenzyl)-5-fluorobenzimidazol-2-yl]cyclopentane-1-carboxylic acid]	100	37	
O=C(O)[C@@H]1CC=CC[C@@H]1c1nc2cc(F)ccc2n1Cc1ccc(Cl)cc1 (relative stereo) [Example 161, Cis-5-[1-(4-chlorobenzyl)-5-fluorobenzimidazol-2-yl]cyclohexene-4-carboxylic acid]	96	15	
CC(C)(CC(=O)O)Cc1nc2ccccc2n1Cc1ccccc1 [Example 58, 4-(1 Benzylbenzimidazol-2-yl)-3,3-dimethylbutanoic acid]	95	13	
O=C(O)CCCCSc1nc2cc(F)ccc2n1Cc1ccc(Cl)cc1 [Example 59, 5-[1-(4-Chlorobenzyl)-5-fluorobenzimidazol-2-yl]mercaptopentanoic acid]	100	28	
O=C(O)CCCSc1nc2ccccc2n1Cc1ccc(Cl)cc1 [Example 63, 4-[1-(4-Chlorobenzyl)benzimidazol-2-yl]mercaptobutanoic acid]	97	37	
O=C(O)CCCSc1nc2ccccc2n1Cc1ccc(Cl)cc1Cl [Example 64, 4-[1 (2,4-Dichlorobenzyl)benzimidazol-2-yl]mercaptobutanoic acid]	97	34	
O=C(O)CCCSc1nc2cc(F)ccc2n1Cc1ccc(Cl)cc1 [Example 65, 4-[1-(4-Chlorobenzyl)-5 fluorobenzimidazol-2-yl]mercaptobutanoic acid]	93	8	
Cc1ccc(Cn2c(CC(C)(C)CC(=O)O)nc3ccccc32)cc1 [Example 66, 4-[1-(4-Methylbenzyl)benzimidazol-2-yl]-3,3-dimethylbutanoic acid]	100	52	
CC(C)(CC(=O)O)Cc1nc2ccccc2n1Cc1ccc(F)cc1 [Example 67]	100	66	
COc1ccc(Cn2c(CC(C)(C)CC(=O)O)nc3ccccc32)cc1 [Example 68, 4-[1-(4-Methoxybenzyl)benzimidazol-2-yl]-3,3-dimethybutanoic acid]	100	89	0.031
CC(C)(CC(=O)O)Cc1nc2ccccc2n1Cc1ccc(Br)cc1 [Example 69, 4-[1-(4 Bromobenzyl)benzimidazol-2-yl]-3,3-dimethylbutanoic acid]	96	86	0.0158
CC(C)(CC(=O)O)Cc1nc2cc(Cl)c(Cl)cc2n1Cc1ccc(Cl)cc1 [Example 70, 4-[1-(4-Chlorobenzyl)-5,6-dichlorobenzimidazol-2-yl]-3,3-dimethylbutanoic acid]	100	14	
CC(C)(CC(=O)O)Cc1nc2ccccc2n1Cc1cccc(C(F)(F)F)c1 [Example 71, 4-[1-(3-Trifluoromethylbenzyl)benzimidazol-2-yl]-3,3-dimethylbutanoic acid]	100	49	
O=C(O)CC1(Cc2nc3cc(F)ccc3n2Cc2ccc(Cl)cc2)CCCC1 [Example 72, [10[1-(4-Chlorobenzyl)-5-fluorobenzimidazol-2-yl]-methylcyclopent-1 yl]acetic acid]	100	71	0.0423
O=C(O)CC1(Cc2nc3cc(F)ccc3n2Cc2ccc(Cl)cc2)CCCCC1 [Example 73, [1-[1-(4-Chlorobenzyl)-5-fluorobenzimidazol-2-yl]methylcyclohex-1-yl]aceticacid]	98	0	0.807
CC(C)(CC(=O)O)Cc1nc2cc(F)ccc2n1Cc1ccc(Cl)cc1 [Example 74, 4-[1-(4-Chlorobenzyl)-5-fluorobenzimidazol-2-yl]-3,3-dimethylbutanoic acid]	100	94	0.0063

SMILES	inhibition at 10 µM [%]	inhibition at 0.1 µM [%]	Ki [µM]
CCC(C)(CC(=O)O)Cc1nc2ccccc2n1Cc1ccc(Cl)cc1 (stereo not shown) [Example 75, 4-[1-(4-Chlorobenzyl)benzimidazol-2-yl]-3-methyl-3-ethylbutanoic acid]	100	57	
CC(C)(CC(=O)O)Cc1nc2ccccc2n1Cc1ccc(Br)cc1F [Example 76, 4-[1-(2-Fluoro-4-bromobenzyl)benzimidazol-2-yl]-3,3-dimethylbutanoic acid]	99	88	0.0114
CC(C)(CC(=O)O)Cc1nc2ccccc2n1Cc1ccc(Cl)cc1 [Example 77, 4-[1-(4-Chlorobenzyl)benzimidazol-2-yl]-3,3-dimethylbutanoic acid]	100	85	0.031
COc1ccc2c(c1)nc(CC(C)(C)CC(=O)O)n2Cc1ccc(Cl)cc1 [Example 78, 4-[1-(4-Chlorobenzyl)-5-methoxybenzimidazol-2-yl]-3,3-dimethylbutanoic acid]	100	44	
CC(C)(CC(=O)O)Cc1nc2cc(Cl)ccc2n1Cc1ccc(Cl)cc1 [Example 79, 4-[1 (4-Chlorobenzyl)-5-chlorobenzimidazol-2-yl]-3,3-dimethylbutanoic acid]	99	74	0.0232
CC(C)(CC(=O)O)Cc1nc2cc(F)ccc2n1Cc1ccc(Cl)c(Cl)c1 [Example 80, 4-[1-(3,4-Dichlorobenzyl)-5-fluorobenzimidazol-2-yl]-3,3-dimethylbutanoic acid]	92	89	0.00602
CC(C)(CC(=O)O)Cc1nc2ccccc2n1Cc1ccc([N+](=O)[O-])cc1 [Example 81, 4-[1-(4-Nitrobenzyl)benzimidazol-2-yl]-3,3-dimethylbutanoic acid]	100	83	0.0601
CCC(CC)(CC(=O)O)Cc1nc2ccccc2n1Cc1ccc(Cl)cc1 [Example 82, 4-[1-(4-Chlorobenzyl)benzimidazol-2-yl]-3,3-diethylbutanoic acid]	97	35	
CC(CC(=O)O)Cc1nc2ccccc2n1Cc1ccc(Cl)cc1 (stereo not shown) [Example 83, 4-[1-(4-Chlorobenzyl)benzimidazol-2-yl]-3-methylbutanoic acid]	100	10	
CC(C)(CC(=O)O)Cc1nc2ccccc2n1Cc1ccc2ccccc2c1 [Example 84, 4-[1-(Naphth-2-ylmethyl)benzimidazol-2-yl]-3,3-dimethylbutanoic acid]	98	85	
CC(C)(CC(N)=O)Cc1nc2ccccc2n1Cc1ccc(Cl)cc1 [Example 85, 4-[1-(4-Chlorobenzyl)benzimidazol-2-yl]-3,3-dimethylbutanamide]	90	7	
CC(C)(CC(=O)O)Cc1nc2ccccc2n1Cc1ccc(O)cc1 [Example 87, 4-[1-(4-Hydroxybenzyl)benzimidazol-2-yl]-3,3-dimethylbutanoic acid]	96	50	
CC(C)(CC(=O)O)Cc1nc2cc(Cl)cnc2n1Cc1ccc(Cl)cc1 [Example 92]	100	97	0.0125
CSc1ccc(Cn2c(CC(C)(C)CC(=O)O)nc3cc(F)ccc32)cc1 [Example 96, 4-[1-(4-Methylthiobenzyl)-5-fluorobenzimidazol-2-yl]-3,3-dimethylbutanoic acid]	100	100	0.005
CC(C)(CC(=O)O)Cc1nc2cc(F)ccc2n1Cc1ccc(S(C)(=O)=O)cc1 [Example 97, 4-[1-(4-Methylsulfonylbenzyl)-5-fluorobenzimidazol-2-yl]-3,3-dimethylbutanoic acid]	100	100	0.037
CC(C)(CC(=O)O)Cc1nc2cc(Cl)ccc2n1Cc1ccc(Cl)c(Cl)c1 [Example 101, 4-[1-(3,4-Dichlorobenzyl)-5-chlorobenzimidazol-2-yl]-3,3-dimethylbutanoic acid]	92	71	
CC(C)(CC(=O)O)Cc1nc2cc(F)ccc2n1Cc1ccc(Br)cc1F [Example 105, 4-[1-(2-Fluoro-4-bromobenzyl)-5-fluorobenzimidazol-2-yl]-3,3-dimethylbutanoic acid]	98	100	
